{
  "source": "patent US20230190690A1",
  "about": "“[…] AND/OR […] FOR CORONAVIRUS DISEASE 2019 (COVID-19)” (NEOPHARMA JAPAN CO., LTD., priority 2020, published 2023)",
  "system": "variants of SARS-CoV-2",
  "experiment": "Infection of cells with a SARS-CoV-2 variant in the same manner",
  "format": "cell-based",
  "conditions": "cells infected with a variant in the same manner",
  "data": [
    {"molecule": "NCC(=O)CCC(=O)O", "note": "[5-ALA, 5-aminolevulinic acid]", "values": [
      {"measurement": "inhibitory effect on SARS-CoV-2 infection and/or proliferation (variant)", "value": "inhibitory effect on SARS-CoV-2 infection and/or proliferation is expected"}
    ]}
  ]
}
